Experimental data from patent US20220306691A1, “THERAPEUTIC PEPTIDES” (COHBAR, INC., priority 2019, published 2022).
Where a SMILES comes first, the peptide text is derived from it. Where no end group is shown, it is not given here. [ ]: non-standard residue; d: D form.

Experiments:
3T3-L1 adipocytes = experiment: Free fatty acid levels in cultured 3T3-L1 adipocytes stimulated with isoproterenol; conditions: for Free Fatty Acid Levels, Percent of Control Value (Percent Isoproterenol Control): test peptides 25 μM, 20-22 hours then 3 hours with isoproterenol (1 nM)
Experimental: Mouse 3T3-L1 adipocytes were seeded at 3,000 cells per well in 96-well plates in Pre-adipocyte Medium (Zen-Bio, Durham, N.C.) and grown to confluence at 37° C. in a humidified atmosphere of 5% CO2/95% air. Two days after confluence, cells were placed in Adipocyte Differentiation Medium (Zen-Bio, Durham, N.C.) and cultured for three additional days at 37° C. in a humidified atmosphere of 5% CO2/95% air. The culture media was then replaced with Adipocyte Maintenance Medium (Zen-Bio) and the cells maintained for an additional 9-12 days at 37° C. in a humidified atmosphere of 5% CO2/95% air with partial medium replacement every other day. Following 12-15 days' differentiation, test peptides were added to a final concentration of 25 μM and incubated for 20-22 hours in Adipocyte Maintenance Medium. After 20-22 hours, isoproterenol (1 nM) was added to all wells except untreated controls and test peptides were replenished. Cells were incubated for a further 3 hours in Assay Buffer (Zen-Bio). Free fatty acid concentrations in the media were determined using a Free Fatty Acid Assay Kit (Zen-Bio) according to the manufacturer's instructions using a plate reader (540 nm). Absorbance values were corrected for untreated background and expressed relative to isoproterenol treated cells. Treatment with isoproterenol (1 nM) alone was used as the free fatty acid level stimulatory control. The relative standard deviation of the isoproterenol control was <10%.

MCF-7 cells = experiment: Cell viability, MTS assay in MCF-7 cells; conditions: for MTS Assay (cell viability), Percent of Control Activity: human, 72 hours, 10 µM
Experimental: Peptides and reference compound staurosporine (Selleckchem) were dissolved with DMSO at 10 mM stock. CellTiter 96® AQueous One Solution Reagent (MTS assay reagent) was purchased from Promega (Madison, Wis.). MCF-7 human breast cancer cell line was purchased from American Type Culture Collection (Manassas, Va.). MCF-7 cells were grown in EMEM Medium supplemented with 10% FBS and 0.01 mg/ml human recombinant insulin. 100 μg/ml penicillin and 100 μg/ml streptomycin were added to the culture medium. […] 5 μl of CellTiter 96® AQueous One Solution Reagent (MTS assay reagent) was added to each well and incubated at 37° C., 5% CO2 for 5 hours. Absorbance at 492 nm was recorded by Envision 2104 Multilabel Reader. Treatment with DMSO alone was used as the cell viability activity control.

MDA-MB-231 cells [1] = experiment: Caspase 3/7 activity (Caspase-Glo 3/7) in MDA-MB-231 cells; format: cell-based, human; conditions: test peptides at 10 μM, 18 hours, relative to DMSO control
Experimental: The effect of the peptides on cell death/survival can be assessed using a caspase-3 assay. Peptides were dissolved with DMSO at 10 mM stock. […] Staurosporine (Selleckchem) was dissolved with DMSO at 1 mM stock. Caspase-Glo 3/7 Assay Reagent was purchased from Promega (Madison, Wis.). MDA-MB-231 human breast cancer cell line was purchased from American Type Culture Collection (Manassas, Va.). MDA-MB-231 cells were grown in DMEM Medium supplemented with 10% FBS. 100 μg/ml penicillin and 100 μg/ml streptomycin were added to the culture medium. […] 25 μl of Caspase-Glo 3/7 Assay Reagent was added to each well and incubated at 37° C., 5% CO2 for 1 hour. Luminescence for each sample well on the plate was measured by Envision 2104 Multilabel Reader (PerkinElmer, Santa Clara, Calif.). Activity was calculated relative to DMSO control.

MDA-MB-231 cells [2] = experiment: Cell viability, MTS assay in MDA-MB-231 cells; format: cell-based, human; conditions: for MTS Assay (cell viability), Percent of Control Activity: human, 72 hours
Experimental: Test compounds and reference compound staurosporine (Selleckchem) were all dissolved with DMSO at 10 mM stock. […] Activity was calculated relative to DMSO control. […] Cell viability was 3% of the DMSO control value for Staurosporine (10 uM).

Row | Molecule | Free Fatty Acid Levels, Percent of Control Value (Percent Isoproterenol Control) (3T3-L1 adipocytes) | also measured
1 | 3 (LACFRCEIVVGSWCWSLS) [compound 3] | 109% | 
2 | 4 (ACFRCEIVVGSWCWSLS; not fully specified; cysteine pairing not given here) [compound 4] | 116% | 
3 | 5 ([dA]CFRCEIVVGSWCWSLS; cysteine pairing not given here) [compound 5] | 113% | 
4 | 8 (NIVVGKRLIIKVDATMDFT; not fully specified) [compound 8] | 81% | 
5 | 9 (NIVVGKRLIIKVD[dA]TMDFT) [compound 9] | 103% | 
6 | 10 (NIVV[dA]KRLIIKVDATMDFT) [compound 10] | 91% | 
7 | 13 (WWVSEPHCVVVNM) [compound 13] | 109% | 
8 | 14 (WWVSEPHCVVVN) [compound 14] | 102% | 
9 | 15 (WVSEPHCVVVN) [compound 15] | 97% | 
10 | 18 (VHHRILTVIYKLRPKH) [compound 18] | 75% | 
11 | 19 (HHRILTVIYKLRPKH) [compound 19] | 78% | 
12 | 20 (HRILTVIYKLRP[dA]H) [compound 20] | 27% | 
13 | 23 (VITFIWSCTKIFGA) [compound 23] | 128% | 
14 | 24 (VITFIWSCTKIFG) [compound 24] | 90% | 
15 | 25 (VITFIWSCTKIF) [compound 25] | 115% | 
16 | CC[C@H](C)[C@H](NC(=O)[C@H](CCC(=O)O)NC(=O)[C@H](CS)NC(=O)[C@H](CCCNC(=N)N)NC(=O)[C@H](Cc1ccccc1)NC(=O)[C@H](CS)NC(=O)[C@H](C)NC(=O)[C@H](CC(C)C)NC(=O)[C@@H](N)CCSC)C(=O)N[C@H](C(=O)N[C@H](C(=O)NCC(=O)N[C@@H](CO)C(=O)N[C@@H](Cc1c[nH]c2ccccc12)C(=O)N[C@@H](CS)C(=O)N[C@@H](Cc1c[nH]c2ccccc12)C(=O)N[C@@H](CO)C(=O)N[C@@H](CC(C)C)C(=O)N[C@@H](CO)C(=O)O)C(C)C)C(C)C [compound 2] (H-MLACFRCEIVVGSWCWSLS-OH; N-terminus and C-terminus assumed) | 114% | MTS Assay (cell viability), Percent of Control Activity (MCF-7 cells): 55%; Caspase 3/7 Activity, Percent of Control Activity (MDA-MB-231 cells [1]): 95%; MTS Assay (cell viability), Percent of Control Activity (MDA-MB-231 cells [2]): 78%
17 | CN[C@@H]1C[C@H]2O[C@@](C)([C@@H]1OC)n1c3ccccc3c3c4c(c5c6ccccc6n2c5c31)C(=O)NC4 [staurosporine, reference compound] |  | Cell viability, % of the background corrected DMSO control value (MCF-7 cells; MCF-7 cells, staurosporine 10 uM, positive control): < 5%; Cell viability, % of the DMSO control value (MDA-MB-231 cells [2]; MDA-MB-231 cells, Staurosporine 10 uM, positive control): 3%
18 | Insulin [reference compound] |  | Free fatty acid levels, % of the isoproterenol control value (3T3-L1 adipocytes; insulin 100 nM, positive control): < 5%
19 | MNIVVGKRLIIKVDATMDFT [compound 7] | 94% | MTS Assay (cell viability), Percent of Control Activity (MCF-7 cells): 59%; Caspase 3/7 Activity, Percent of Control Activity (MDA-MB-231 cells [1]): 73%; MTS Assay (cell viability), Percent of Control Activity (MDA-MB-231 cells [2]): 75%
20 | MVHHRILTVIYKLRPKH [compound 17] | 88% | MTS Assay (cell viability), Percent of Control Activity (MCF-7 cells): 60%; Caspase 3/7 Activity, Percent of Control Activity (MDA-MB-231 cells [1]): 74%; MTS Assay (cell viability), Percent of Control Activity (MDA-MB-231 cells [2]): 82%
21 | MVITFIWSCTKIFGA [compound 22] | 133% | MTS Assay (cell viability), Percent of Control Activity (MCF-7 cells): 58%; Caspase 3/7 Activity, Percent of Control Activity (MDA-MB-231 cells [1]): 69%; MTS Assay (cell viability), Percent of Control Activity (MDA-MB-231 cells [2]): 81%
22 | MWWVSEPHCVVVNM [compound 12] | 112% | MTS Assay (cell viability), Percent of Control Activity (MCF-7 cells): 63%; Caspase 3/7 Activity, Percent of Control Activity (MDA-MB-231 cells [1]): 56%; MTS Assay (cell viability), Percent of Control Activity (MDA-MB-231 cells [2]): 78%
